Measurements: patent US12668599B2, “Heterobifunctional compounds and methods of treating disease” (Halda Therapeutics OpCo, Inc., priority 2023, dated 2026)

Columns and labels:
[1] = test system: T-Rex 293 cell line SC3 cells having increased expression of androgen receptor protein due to exposure to doxycycline; test: Cellular growth inhibition, T-Rex 293 SC3 cells with doxycycline-induced androgen receptor (CellTiter-Glo 2.0, 72 hours); assay type: cell-based; conditions: for GI50: T-Rex 293 SC3 cells with 10 ng/ml doxycycline (increased androgen receptor expression), 72 hours, CellTiter-Glo 2.0; for Ratio of GI50's: GI50 of the top compound in the pair divided by GI50 of the lower compound, T-Rex 293 SC3 cells with doxycycline-induced androgen receptor
[2] = test system: T-Rex 293 cell line SC3 cells lacking increased expression of androgen receptor protein; test: Cellular growth inhibition, T-Rex 293 SC3 cells without doxycycline (CellTiter-Glo 2.0, 72 hours); assay type: cell-based; conditions: T-Rex 293 SC3 cells not exposed to doxycycline (no increased androgen receptor expression)
VCaP cells = test: Cellular growth inhibition assay for VCaP cells (CellTiter-Glo 2.0, 72 hours); assay type: cell-based, human; conditions: for GI50: CellTiter-Glo 2.0; for Ratio of GI50's: GI50 of the top compound in the pair divided by GI50 of the lower compound

SMILES	GI50 [1]	GI50 ([2]; 72 h)	GI50 (VCaP cells; Homo sapiens, VCaP, 72 h)	GI50 [2]	GI50 (VCaP cells; 72 hours)	Ratio of GI50's [1]	Ratio of GI50's (VCaP cells)
COc1cc(O[C@H]2CC[C@H](NC(=O)c3ccc(N4CCC5(CCN(c6ccc(C7=N[C@@H](C)c8nnc(C)n8-c8sc(C)c(C)c87)cc6Cl)CC5)C4)nn3)CC2)ccc1C#N [Compound I-73, 6-[8-[2-chloro-4-[(9S)-4,5,9,13-tetramethyl-3-thia-1,8,11,12-tetrazatricyclo[8.3.0.0^2,6]trideca-2 (6),4,7,10,12-pentaen-7-yl]phenyl]-2,8-diazaspiro[4.5]decan-2-yl]-N-[4-(4-cyano-3-methoxy-phenoxy)cyclohexyl]pyridazine-3-carboxamide]	< 500 nM	< 500 nM	< 500 nM				
COc1cc(O[C@H]2CC[C@H](NC(=O)c3ccc(N4CCC5(CCN(c6ccc(C7=N[C@@H](C)c8nnc(C)n8-c8sc(C)c(C)c87)c(Cl)c6)CC5)C4)nn3)CC2)ccc1C#N [Compound I-74]	< 500 nM	> 3000 nM	< 500 nM				
COc1cc(O[C@H]2CC[C@H](NC(=O)c3ccc(N4CCC5(CCN(c6ccc(C7=N[C@@H](C)c8nnc(C)n8-c8sc(C)c(C)c87)c(OC)c6)CC5)C4)nn3)CC2)ccc1C#N [Compound I-75]	< 500 nM	< 500 nM	< 500 nM				
COc1cc(O[C@H]2CC[C@H](NC(=O)c3ccc(N4C[C@@H]5CN(c6ccc(C7=N[C@@H](C)c8nnc(C)n8-c8sc(C)c(C)c87)cc6F)C[C@@H]5C4)nn3)CC2)ccc1C#N [Compound I-76]	< 500 nM	< 500 nM	< 500 nM				
COc1cc(O[C@H]2CC[C@H](NC(=O)c3ccc(N4C[C@H]5CN(c6ccc(C7=N[C@@H](C)c8nnc(C)n8-c8sc(C)c(C)c87)c(F)c6)C[C@H]5C4)nn3)CC2)ccc1C#N [Compound I-77]	< 500 nM	< 500 nM	< 500 nM				
COc1cc(O[C@H]2CC[C@H](NC(=O)c3ccc(N4CC56CCCCC5(CN(c5ccc(C7=N[C@@H](C)c8nnc(C)n8-c8sc(C)c(C)c87)cc5)C6)C4)nn3)CC2)ccc1C#N (stereo partly shown) [Compound I-78]	< 500 nM	< 500 nM	< 500 nM				
COc1cc(O[C@H]2CC[C@H](NC(=O)c3ccc(N4CCC5(CCN(c6ccc(C7=N[C@@H](C)c8nnc(C)n8-c8sc(C)c(C)c87)cc6F)C5)C4)nn3)CC2)ccc1C#N (stereo partly drawn) [Compound I-79, N-[4-(4-cyano-3-methoxy-phenoxy)cyclohexyl]-6-[7-[2-fluoro-4-[(9S)-4,5,9,13-tetramethyl-3-thia-1,8,11,12-tetrazatricyclo[8.3.0.0^2,6]trideca-2 (6),4,7,10,12-pentaen-7-yl]phenyl]-2,7-diazaspiro[4.4]nonan-2-yl]pyridazine-3-carboxamide]	< 500 nM	< 500 nM	< 500 nM				
COc1cc(O[C@H]2CC[C@H](NC(=O)c3ccc(N4CCC5(CCN(c6ccc(C7=N[C@@H](C)c8nnc(C)n8-c8sc(C)c(C)c87)cc6F)C5)C4)nn3)CC2)ccc1C#N (stereo partly shown) [Compound I-80]	< 500 nM			< 500 nM	< 500 nM		
COc1cc(O[C@H]2CC[C@H](NC(=O)c3ccc(N4CCC5(CCCN(c6ccc(C7=N[C@@H](C)c8nnc(C)n8-c8sc(C)c(C)c87)cc6)C5)CC4)nn3)CC2)ccc1C#N [Compound I-81, N-((1r,4r)-4-(4-cyano-3-methoxyphenoxy)cyclohexyl)-6-(2-(4-((S)-2,3,6,9-tetramethyl-6H-thieno[3,2-f][1,2,4]triazolo[4,3-a][1,4]diazepin-4-yl)phenyl)-2,9-diazaspiro[5.5]undecan-9-yl) pyridazine-3-carboxamide]	< 500 nM	< 500 nM	< 500 nM				
COc1cc(O[C@H]2CC[C@H](NC(=O)c3ccc(N4CCC5(CC4)CC(Oc4ccc(C6=N[C@@H](Cc7ncco7)c7nnc(C)n7-c7sc(C)c(C)c76)cc4)C5)nn3)CC2)ccc1C#N [Compound I-83, N-[4-(4-cyano-3-methoxy-phenoxy)cyclohexyl]-6-[2-[4-[(9S)-4,5,13-trimethyl-9-(oxazol-2-ylmethyl)-3-thia-1,8,11,12-tetrazatricyclo[8.3.0.0^2,6]trideca-2 (6),4,7,10,12-pentaen-7-yl]phenoxy]-7-azaspiro[3.5]nonan-7-yl]pyridazine-3-carboxamide]	< 500 nM	< 500 nM	< 500 nM			1	1
COc1cc(O[C@H]2CC[C@H](NC(=O)c3ccc(N4CCC5(CCC(c6ccc(C7=N[C@@H](C)c8nnc(C)n8-c8sc(C)c(C)c87)cc6Cl)CC5)C4)nn3)CC2)ccc1C#N (stereo partly shown) [Compound I-84]	< 500 nM		< 500 nM	< 500 nM			
COc1cc(O[C@H]2CC[C@H](NC(=O)c3ccc(N4CCC5(CCC(c6ccc(C7=N[C@@H](C)c8nnc(C)n8-c8sc(C)c(C)c87)cc6Cl)CC5)C4)nn3)CC2)ccc1C#N (stereo partly shown) [Compound I-85]	< 500 nM			> 3000 nM	< 500 nM		
COc1cc(O[C@H]2CC[C@H](NC(=O)c3ccc(N4CCC5(CCC(c6ccc(C7=N[C@@H](C)c8nnc(C)n8-c8sc(C)c(C)c87)cn6)CC5)C4)nn3)CC2)ccc1C#N (stereo partly drawn) [Compound I-86, N-[4-(4-cyano-3-methoxy-phenoxy)cyclohexyl]-6-[8-[5-[(9S)-4,5,9,13-tetramethyl-3-thia-1,8,11,12-tetrazatricyclo[8.3.0.0^2,6]trideca-2 (6),4,7,10,12-pentaen-7-yl]-2-pyridyl]-2-azaspiro[4.5]decan-2-yl]pyridazine-3-carboxamide]	< 500 nM		< 500 nM	> 3000 nM			
COc1cc(O[C@H]2CC[C@H](NC(=O)c3ccc(N4CCC5(CCC(c6ccc(C7=N[C@@H](C)c8nnc(C)n8-c8sc(C)c(C)c87)cn6)CC5)C4)nn3)CC2)ccc1C#N (stereo partly shown) [Compound I-87]	< 500 nM			< 500 nM	< 500 nM		
COc1cc(O[C@H]2CC[C@H](NC(=O)c3ccc(N4CCC5(CCC(c6ccc(C7=N[C@@H](C)c8nnc(C)n8-c8sc(C)c(C)c87)nc6)CC5)C4)nn3)CC2)ccc1C#N (stereo partly shown) [Compound I-88]	< 500 nM	< 500 nM	< 500 nM				
COc1cc(O[C@H]2CC[C@H](NC(=O)c3ccc(N4CCC5(CCC(c6ccc(C7=N[C@@H](C)c8nnc(C)n8-c8sc(C)c(C)c87)nc6)CC5)C4)nn3)CC2)ccc1C#N (stereo partly shown) [Compound I-89]	< 500 nM			< 500 nM	500 to 1500 nM		
COc1cc(O[C@H]2CC[C@H](NC(=O)c3ccc(N4CCC5(CCN(c6ccc(C7=N[C@@H](C)c8nnc(C)n8-c8sc(C)c(C)c87)cc6OC)CC5)C4)nn3)CC2)ccc1C#N [Compound I-90]	< 500 nM	< 500 nM	< 500 nM				
COc1cc(O[C@H]2CC[C@H](NC(=O)c3ccc(N4C[C@]5(F)CN(c6ccc(C7=N[C@@H](C)c8nnc(C)n8-c8sc(C)c(C)c87)cc6)C[C@]5(F)C4)nn3)CC2)ccc1C#N [Compound I-91]	< 500 nM	< 500 nM	< 500 nM				
COc1cc(O[C@H]2CC[C@H](NC(=O)c3ccc(N4CCC5(CCN(c6ccc(C7=N[C@@H](C)c8nnc(C)n8-c8sc(C)c(C)c87)c(F)c6)C5)C4)nn3)CC2)ccc1C#N (stereo partly shown) [Compound I-92]	< 500 nM	< 500 nM	< 500 nM				
COc1cc(O[C@H]2CC[C@H](NC(=O)c3ccc(N4CCC5(CCN(c6ccc(C7=N[C@@H](C)c8nnc(C)n8-c8sc(C)c(C)c87)c(F)c6)C5)C4)nn3)CC2)ccc1C#N (stereo partly shown) [Compound I-93]	< 500 nM			< 500 nM	< 500 nM		
COc1cc(O[C@H]2CC[C@H](NC(=O)c3ccc(N4CCC5(CCC(c6ccc(C7=N[C@@H](C)c8nnc(C)n8-c8sc(C)c(C)c87)cc6)C5)C4)nn3)CC2)ccc1C#N (stereo partly shown) [Compound I-94]	< 500 nM	< 500 nM	< 500 nM				
COc1cc(O[C@H]2CC[C@H](NC(=O)c3ccc(N4CCC5(CCC(c6ccc(C7=N[C@@H](C)c8nnc(C)n8-c8sc(C)c(C)c87)cc6)C5)C4)nn3)CC2)ccc1C#N (stereo partly shown) [Compound I-95]	< 500 nM			< 500 nM	< 500 nM		
COc1cc(O[C@H]2CC[C@H](NC(=O)c3ccc(N4CCC5(CCC(c6ccc(C7=N[C@@H](C)c8nnc(C)n8-c8sc(C)c(C)c87)cc6)C5)C4)nn3)CC2)ccc1C#N (stereo partly shown) [Compound I-96]	< 500 nM			< 500 nM	< 500 nM		
COc1cc(O[C@H]2CC[C@H](NC(=O)c3ccc(N4CCC5(CCC(c6ccc(C7=N[C@@H](C)c8nnc(C)n8-c8sc(C)c(C)c87)cc6)C5)C4)nn3)CC2)ccc1C#N (stereo partly shown) [Compound I-97]	< 500 nM			< 500 nM	< 500 nM		
COc1cc(O[C@H]2CC[C@H](NC(=O)c3ccc(N4CCC5(CCCN(c6ccc(C7=N[C@@H](C)c8nnc(C)n8-c8sc(C)c(C)c87)cc6)C5)C4)nn3)CC2)ccc1C#N (stereo partly shown) [Compound I-99]	< 500 nM			< 500 nM	< 500 nM		
COc1cc(O[C@H]2CC[C@H](NC(=O)c3ccc(N4CCC5(CCC(c6ccc(C7=N[C@@H](Cc8ncco8)c8nnc(C)n8-c8sc(C)c(C)c87)cc6)CC5)C4)nn3)CC2)ccc1C#N (stereo partly drawn) [Compound I-100, N-((1r,4r)-4-(4-cyano-3-methoxyphenoxy)cyclohexyl)-6-(8-(4-((S)-2,3,9-trimethyl-6-(oxazol-2-ylmethyl)-6H-thieno[3,2-f][1,2,4]triazolo[4,3-a][1,4]diazepin-4-yl)phenyl)-2-azaspiro[4.5]decan-2-yl) pyridazine-3-carboxamide]	< 500 nM	< 500 nM	< 500 nM				
COc1cc(O[C@H]2CC[C@H](NC(=O)c3ccc(N4CCC5(CCC(c6ccc(C7=N[C@@H](Cc8ncco8)c8nnc(C)n8-c8sc(C)c(C)c87)cc6)CC5)C4)nn3)CC2)ccc1C#N (stereo partly shown) [Compound I-101]	< 500 nM			< 500 nM	< 500 nM	1	1
